{"source": "patent US10563272B2", "about": "“Compositions comprising Metarhizium fungi and use thereof as a pesticide” (Cotton Research and Development Corporation, priority 2015, dated 2020)", "key": {"spiders [1]": {"system": "spiders", "assay": "Foliar spray trial on Bollgard II cotton, Norwood 2010-11 (Example 7): spiders", "assay_type": "in vivo, Lycosa spp., Oxyopes spp., Salticidae spp., Araneus spp.", "conditions": "fipronil 62.5 mL/ha; for number of spiders per meter: 1st spray, BC 667/DAT 511 0.50 L/ha; for number of spiders per metre: 2nd spray, BC 667/DAT 511 0.5 L/ha", "protocol": "The trial was conducted on commercial Bollgard II® cotton crops at Norwood near Moree, NSW from 5 Dec. 2010 to 19 Feb. 2011. The cotton was at the early squaring stage, when it was attractive to green mirids (Khan et al. 2004).\nThe study evaluated the efficacy of the following treatments against green mirids, green vegetable bugs and predatory insects: • 1. 500 mL/ha BC 667 spore in oil (1×10^7 spores/ml); • 2. 500 mL/ha DAT 511 spore in oil (1×10^7 spores/ml); • 3. 62.5 mL/ha Fipronil (conventional insecticide); and • 4. Unsprayed (control).\nThe treatment plots were arranged in a randomized complete block design with four replicates per treatment. Each replicated plot measured 0.5 ha. Foliar application of each treatment was made on 18 Jan. 2011 using a ground spray rig fitted with flat fan nozzles to achieve a droplet size of 80 250 μm. The treatment was applied in the mornings when temperature was between 20° C. and 28° C. The timing of treatment was based on an economic threshold of 0.5 green mirids per metre, the IPM guideline and recommendation by CottonLogic.\nPre-treatment counts of green mirid adults and nymphs, predatory beetles, predatory bugs, predatory lacewings and spiders were made by visual inspection of whole cotton plants. Both adults and nymphs of the beneficial insects were counted. Plants were assessed in randomly selected one-metre lengths of row of each treatment replicate (i.e. four metres per treatment). In all, two spray applications of each treatment were made. The first spray was made on 18 Jan. 2011. Post-treatment counts of the first spray application were taken 3, 7 and 14 days after treatment (DAT) (first spray). A second spray application was done on 1 Feb. 2011 when green mirid adults plus nymphs reached the threshold of 0.5 per metre. Post-treatment counts of the second spray application were taken 3, 7, 14, 21 and 28 DAT. Data are expressed as numbers of individuals of that species counted per metre for each treatment."}, "spiders [2]": {"system": "spiders", "assay": "Bollgard II cotton, Auscott-Togo 2012-13, Field 77 (Experiment 1): spiders", "assay_type": "in vivo, Lycosa spp., Oxyopes spp., Salticidae spp., Araneus spp.", "conditions": "62.5 mL/ha", "protocol": "(§1) Two separate trials (Experiment 1 in Field 77; Experiment 2 in Field 63) were conducted in Bollgard II cotton crops on a commercial cotton farm at Auscott-Togo near Narrabri, New South Wales from 11 Feb. to 5 Mar. 2013 (Field 77) and 19 Feb. to 6 Mar. 2013 (Field 63). The cotton used for each of the trials was at the late squaring to pod setting and maturation stages which was fairly attractive to green mirids.\n(§2) In both trials, the efficacy of the following treatments against green mirids and predatory insects was evaluated: • 1. 250 mL/ha DAT 511 spore in oil (1×10^7 spores/ml); • 2. 500 mL/ha DAT 511 spore in oil (1×10^7 spores/ml); • 3. 1 L/ha DAT 511 spore in oil (1×10^7 spores/ml); • 4. 62.5 mL/ha of fipronil; and • 5. Unsprayed (negative control).\n(§3) The treatment plots were arranged in a randomized complete block design with six replicates per treatment. Each replicated plot measured 40 m wide (40 rows) and 90 m long.\n(§4) Foliar application of each treatment was made on 28 Feb. (for both green mirids and beneficial insects) and 13 Mar. 2012 (for beneficial insects alone) using a ground spray rig fitted with flat fan nozzles to achieve a droplet size of 200 μm. The treatment was applied during the mornings when temperatures were between 20° C. and 28° C. The timing of treatment was based on the IPM Guidelines and recommendations by CottonLogic to use an economic threshold of 0.5 green mirids per metre (Deutscher and Wilson 1999; Khan et al. 2004).\n(§5) Pre-treatment counts of green mirid adults and nymphs, predatory beetles, predatory bugs, predatory lacewings and spiders were made by visual inspection of whole cotton plants. Both adults and nymphs of beneficial insects were counted. Plants were assessed in randomly selected one-metre lengths of row of each replicate (i.e. 6 m per treatment). Post-treatment counts were made 3, 7, 14 and 21 days after treatment. Data are expressed as numbers of green mirid adults and nymphs counted per metre for each treatment."}, "predatory bugs": {"system": "predatory bugs", "assay": "Rate trial on conventional cotton refuge crops, Undabri 2012 (Example 12): predatory bugs", "assay_type": "in vivo, Hemiptera (Nabidae, Lygaeidae, Pentatomidae)", "conditions": "DAT 511 500 mL and 1.0 L/ha (P<0.001 versus 250 mL/ha and unsprayed); fipronil 62.5 mL/ha", "protocol": "This trial was conducted using commercial conventional cotton refuge crops at Undabri in Goondiwindi (28° 55'S, 150° 31′E) from 14 Feb. to 6 Mar. 2012.\nThe efficacy of the following treatments against green mirids, green vegetable bugs and predatory insects was assessed: • 1. 250 mL/ha DAT 511 spore in oil (1×10^7 spores/ml); • 2. 500 mL/ha DAT 511 spore in oil (1×10^7 spores/ml); • 3. 1 L/ha DAT 511 spore in oil (1×10^7 spores/ml); • 4. 62.5 mL/ha fipronil; and • 5. Unsprayed (negative control).\nThe plots were arranged in a randomized complete block design with three replicates per treatment. Each replicated plot measured 8 m (8 rows) wide and 250 m long.\nFoliar applications of each treatment were made on 14 Feb. 2012 using a ground spray rig fitted with flat fan nozzles to achieve a droplet size of 200 μm. All insecticide formulations were water miscible. All treatments were applied using a spray volume of 100 L/ha. The untreated (negative control) plot was left unsprayed and the plot treated with synthetic insecticide received two applications similar to, and on the same date as, the plots treated with the fungus.\nFor each replicate, visual counts of adults and nymphs of green mirids, green vegetable bugs (GVB), apple dimpling bugs and predatory insects on whole cotton plants were made in a randomly selected 1 m length of row of cotton plants (i.e. 6 m per treatment). […]"}, "spiders [3]": {"system": "spiders", "assay": "Bollgard II cotton, Auscott-Togo 2012-13, Field 63 (Experiment 2): spiders", "assay_type": "in vivo, Lycosa spp., Oxyopes spp., Salticidae spp., Araneus spp.", "conditions": "62.5 mL/ha", "protocol": "as §1, §2, §3, §4, §5"}}}
{"smiles": "N#Cc1nn(-c2c(Cl)cc(C(F)(F)F)cc2Cl)c(N)c1[S+]([O-])C(F)(F)F", "note": "(stereo not drawn) [fipronil]", "values": [{"measurement": "number of spiders per meter", "setting": "spiders [1]; 3 DAT", "value": "3.33 ± 0.33", "unit": "a per meter"}, {"measurement": "number of spiders per meter", "setting": "spiders [1]; 7 DAT", "value": "4.67 ± 2.03", "unit": "b per meter"}, {"measurement": "number of spiders per meter", "setting": "spiders [1]; 14 DAT", "value": "9.67 ± 1.45", "unit": "a per meter"}, {"measurement": "number of spiders per meter", "setting": "spiders [1]; pre-spray counts 18 Jan. 2011", "value": "9.33 ± 1.20", "unit": "a per meter"}, {"measurement": "number of spiders per metre", "setting": "spiders [1]; 3 DAT", "value": "12.00 ± 1.16", "unit": "a per metre"}, {"measurement": "number of spiders per metre", "setting": "spiders [1]; 7 DAT", "value": "10.33 ± 2.67", "unit": "a per metre"}, {"measurement": "number of spiders per metre", "setting": "spiders [1]; 14 DAT", "value": "16.00 ± 0.58", "unit": "b per metre"}, {"measurement": "number of spiders per metre", "setting": "spiders [1]; 21 DAT", "value": "21.00 ± 3.22", "unit": "a per metre"}, {"measurement": "number of spiders per metre", "setting": "spiders [1]; 28 DAT", "value": "21.00 ± 3.00", "unit": "a per metre"}, {"measurement": "number of spiders per metre", "setting": "spiders [1]; pre-spray counts 1 Feb. 2011", "value": "9.67 ± 1.45", "unit": "a per metre"}, {"measurement": "No. spiders per meter", "setting": "spiders [2]; 3 DAT", "value": "5.00 ± 1.73", "unit": "a per meter"}, {"measurement": "No. spiders per meter", "setting": "spiders [2]; 7 DAT", "value": "5.33 ± 1.86", "unit": "a per meter"}, {"measurement": "No. spiders per meter", "setting": "spiders [2]; 14 DAT", "value": "9.33 ± 0.67", "unit": "a per meter"}, {"measurement": "No. spiders per meter", "setting": "spiders [2]; 21 DAT", "value": "8.67 ± 0.88", "unit": "a per meter"}, {"measurement": "No. spiders per meter", "setting": "spiders [2]; pre-spray counts", "value": "11.67 ± 1.67", "unit": "a per meter"}, {"measurement": "effect on number of predatory bugs per metre", "setting": "predatory bugs", "value": "significantly lower"}, {"measurement": "No. spiders per meter", "setting": "spiders [3]; 3 DAT", "value": "7.33 ± 1.45", "unit": "a per meter"}, {"measurement": "No. spiders per meter", "setting": "spiders [3]; 7 DAT", "value": "4.33 ± 0.67", "unit": "a per meter"}, {"measurement": "No. spiders per meter", "setting": "spiders [3]; 14 DAT", "value": "1.33 ± 0.33", "unit": "a per meter"}, {"measurement": "No. spiders per meter", "setting": "spiders [3]; 21 DAT", "value": "3.67 ± 0.33", "unit": "a per meter"}, {"measurement": "No. spiders per meter", "setting": "spiders [3]; pre-spray counts", "value": "11.67 ± 1.61", "unit": "a per meter"}]}
